Results reported in ChEMBL document CHEMBL1201862, “PubChem BioAssay data set” (2004).
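Grown in 96-well plates, cells were treated for 48 hours with each compound at five concentrations. Insufficient inhibition: endpoint recorded as highest concentration tested. GI50 marks 50% less growth.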 Active and inactive are the calls of the source. No stated cut-off is given here; in the data, active = GI50 up to about 1.1 µM and inactive = higher.

Experiments:
Assay in all cases: NCI anticancer screen, dose series, 48 h
786-0 = system: 786-0
A498 = system: A498
A549 = system: A549
ACHN = system: ACHN
BT-549 = system: BT-549
CAKI-1 = system: CAKI-1
CCRF-CEM = system: CCRF-CEM
COLO 205 = system: COLO 205
DU-145 = system: DU-145
EKVX = system: EKVX
HCC 2998 = system: HCC 2998
HCT-116 = system: HCT-116
HCT-15 = system: HCT-15
HL-60 = system: HL-60
HOP-62 = system: HOP-62
HOP-92 = system: HOP-92
HT-29 = system: HT-29
Hs-578T = system: Hs-578T
IGROV-1 = system: IGROV-1
K562 = system: K562
KM12 = system: KM12
LOX IMVI = system: LOX IMVI
M14 = system: M14
MCF7 = system: MCF7
MDA-MB-231 = system: MDA-MB-231
MDA-MB-435 = system: MDA-MB-435
MDA-N = system: MDA-N
MOLT-4 = system: MOLT-4
NCI-H226 = system: NCI-H226
NCI-H23 = system: NCI-H23
NCI-H460 = system: NCI-H460
NCI/ADR-RES = system: NCI/ADR-RES
OVCAR-3 = system: OVCAR-3
OVCAR-4 = system: OVCAR-4
OVCAR-5 = system: OVCAR-5
PC-3 = system: PC-3
RPMI-8226 = system: RPMI-8226
RXF 393 = system: RXF 393
SF-268 = system: SF-268
SF-295 = system: SF-295
SF-539 = system: SF-539
SK-MEL-28 = system: SK-MEL-28
SK-MEL-2 = system: SK-MEL-2
SK-OV-3 = system: SK-OV-3
SN12C = system: SN12C
SNB-19 = system: SNB-19
SNB-75 = system: SNB-75
SR = system: SR
SW-620 = system: SW-620
T47D = system: T47D
TK-10 = system: TK-10
U-251 = system: U-251
UACC-257 = system: UACC-257
UACC-62 = system: UACC-62
UO-31 = system: UO-31
Malme-3M = system: Malme-3M
NCI-H522 = system: NCI-H522
OVCAR-8 = system: OVCAR-8
SK-MEL-5 = system: SK-MEL-5

How did the GI50 (786-0) turn out when `N=C(N)NCCCC(NC(=O)OCCCCCCn1ccc(N)nc1=O)C(=O)O` (stereo unspecified) was run?
The GI50 was > 100 µM (inactive).

And the GI50 (A498)?
The GI50 was > 100 µM (inactive).

What about the GI50 (A549) of the same compound?
The GI50 was > 100 µM (inactive).

What about the GI50 (ACHN) of the same compound?
Its GI50 is > 100 µM (inactive).

What about the GI50 (BT-549) of the same compound?
The GI50 was > 100 µM (inactive).

And the GI50 (CAKI-1)?
Its GI50 is > 100 µM (inactive).

And the GI50 (CCRF-CEM)?
The GI50 was > 100 µM (inactive).

What about the GI50 (COLO 205) of the same compound?
Its GI50 is > 100 µM (inactive).

What about the GI50 (DU-145) of the same compound?
The GI50 was > 100 µM (inactive).

And the GI50 (EKVX)?
Its GI50 is > 100 µM (inactive).

What about the GI50 (HCC 2998) of the same compound?
Its GI50 is > 100 µM (inactive).

What about the GI50 (HCT-116) of the same compound?
The GI50 was > 100 µM (inactive).

And the GI50 (HCT-15)?
Its GI50 is greater than 100 µM.

And the GI50 (HL-60)?
The GI50 was > 100 µM (inactive).

What about the GI50 (HOP-62) of the same compound?
Its GI50 is > 100 µM (inactive).

What about the GI50 (HOP-92) of the same compound?
The GI50 was > 100 µM (inactive).

And the GI50 (HT-29)?
The GI50 was > 100 µM (inactive).

And the GI50 (Hs-578T)?
Its GI50 is > 100 µM (inactive).

What about the GI50 (IGROV-1) of the same compound?
The GI50 was > 100 µM (inactive).

And the GI50 (K562)?
The GI50 was > 100 µM (inactive).

And the GI50 (KM12)?
Its GI50 is > 100 µM (inactive).

And the GI50 (LOX IMVI)?
Its GI50 is > 100 µM (inactive).

And the GI50 (M14)?
Its GI50 is > 100 µM (inactive).

What about the GI50 (MCF7) of the same compound?
The GI50 was > 100 µM (inactive).

What about the GI50 (MDA-MB-231) of the same compound?
The GI50 was > 100 µM (inactive).

And the GI50 (MDA-MB-435)?
The GI50 was > 100 µM (inactive).

And the GI50 (MDA-N)?
Its GI50 is > 100 µM (inactive).

And the GI50 (MOLT-4)?
Its GI50 is > 100 µM (inactive).

What about the GI50 (NCI-H226) of the same compound?
Its GI50 is 0.418 µM (active).

And the GI50 (NCI-H23)?
The GI50 was > 100 µM (inactive).

And the GI50 (NCI-H460)?
The GI50 was > 100 µM (inactive).

What about the GI50 (NCI/ADR-RES) of the same compound?
Its GI50 is 4.75 µM (inactive).

What about the GI50 (OVCAR-3) of the same compound?
The GI50 was > 100 µM (inactive).

What about the GI50 (OVCAR-4) of the same compound?
Its GI50 is > 100 µM (inactive).

And the GI50 (OVCAR-5)?
Its GI50 is > 100 µM (inactive).

What about the GI50 (PC-3) of the same compound?
The GI50 was > 100 µM (inactive).

And the GI50 (RPMI-8226)?
Its GI50 is > 100 µM (inactive).

And the GI50 (RXF 393)?
The GI50 was > 100 µM (inactive).

What about the GI50 (SF-268) of the same compound?
The GI50 was > 100 µM (inactive).

What about the GI50 (SF-295) of the same compound?
The GI50 was > 100 µM (inactive).

And the GI50 (SF-539)?
The GI50 was > 100 µM (inactive).

What about the GI50 (SK-MEL-28) of the same compound?
The GI50 was > 100 µM (inactive).

What about the GI50 (SK-MEL-2) of the same compound?
The GI50 was > 100 µM (inactive).

What about the GI50 (SK-OV-3) of the same compound?
Its GI50 is > 100 µM (inactive).

And the GI50 (SN12C)?
The GI50 was > 100 µM (inactive).

What about the GI50 (SNB-19) of the same compound?
Its GI50 is > 100 µM (inactive).

And the GI50 (SNB-75)?
Its GI50 is > 100 µM (inactive).

What about the GI50 (SR) of the same compound?
The GI50 was > 100 µM (inactive).

And the GI50 (SW-620)?
The GI50 was > 100 µM (inactive).

What about the GI50 (T47D) of the same compound?
The GI50 was > 100 µM (inactive).

And the GI50 (TK-10)?
Its GI50 is > 100 µM (inactive).

What about the GI50 (U-251) of the same compound?
The GI50 was > 100 µM (inactive).

What about the GI50 (UACC-257) of the same compound?
The GI50 was > 100 µM (inactive).

And the GI50 (UACC-62)?
Its GI50 is > 100 µM (inactive).

And the GI50 (UO-31)?
The GI50 was > 100 µM (inactive).

Which results are given for `CC[C@H](C)[C@H](NC(=O)[C@@]1(O)[C@H](O)[C@]2(CC)C=CCN3CC[C@@]4(c5cc(Br)c(OC)cc5N(C)[C@@H]14)[C@@H]32)C(=O)OC`?
GI50 (786-0): 63.5 µM (inactive); GI50 (A498): 25.3 µM (inactive); GI50 (A549): 20.5 µM (inactive); GI50 (ACHN): 24.8 µM (inactive); GI50 (BT-549): 88.5 µM (inactive); GI50 (CAKI-1): 22.5 µM (inactive); GI50 (CCRF-CEM): 27.8 µM (inactive); GI50 (COLO 205): 14 µM (inactive); GI50 (DU-145): > 100 µM (inactive); GI50 (EKVX): 40.2 µM (inactive); GI50 (HCC 2998): 23.8 µM (inactive); GI50 (HCT-116): 25.5 µM (inactive); GI50 (HCT-15): 25.7 µM; GI50 (HL-60): 37.8 µM (inactive); GI50 (HOP-62): 32.2 µM (inactive); GI50 (HT-29): 11.6 µM (inactive); GI50 (Hs-578T): 23.2 µM (inactive); GI50 (IGROV-1): 26.3 µM (inactive); GI50 (K562): 67.1 µM (inactive); GI50 (KM12): 27.2 µM (inactive); GI50 (LOX IMVI): 16.8 µM (inactive); GI50 (M14): 22.1 µM (inactive); GI50 (MCF7): 35.6 µM (inactive); GI50 (MDA-MB-231): 15.7 µM (inactive); GI50 (MDA-MB-435): 20.5 µM (inactive); GI50 (MDA-N): 25.6 µM (inactive); GI50 (MOLT-4): 22.8 µM (inactive); GI50 (Malme-3M): 21.9 µM (inactive); GI50 (NCI-H23): 86.1 µM (inactive); GI50 (NCI-H460): 24.3 µM (inactive); GI50 (NCI-H522): 27.5 µM (inactive); GI50 (NCI/ADR-RES): 57.8 µM (inactive); GI50 (OVCAR-3): 20.7 µM (inactive); GI50 (OVCAR-4): 4.84 µM (inactive); GI50 (OVCAR-5): > 100 µM (inactive); GI50 (OVCAR-8): 39.4 µM (inactive); GI50 (PC-3): 76.7 µM (inactive); GI50 (RPMI-8226): 14.2 µM (inactive); GI50 (RXF 393): 45.5 µM (inactive); GI50 (SF-268): 27.7 µM (inactive); GI50 (SF-295): 33.8 µM (inactive); GI50 (SF-539): 27.5 µM (inactive); GI50 (SK-MEL-28): 13.2 µM (inactive); GI50 (SK-MEL-2): 26.2 µM (inactive); GI50 (SK-MEL-5): 24.4 µM (inactive); GI50 (SK-OV-3): 38 µM (inactive); GI50 (SN12C): 27.2 µM (inactive); GI50 (SNB-19): 64.3 µM (inactive); GI50 (SR): 27.2 µM (inactive); GI50 (SW-620): 29 µM (inactive); GI50 (T47D): 52.4 µM (inactive); GI50 (TK-10): 38.3 µM (inactive); GI50 (U-251): 27.8 µM (inactive); GI50 (UACC-257): 24.9 µM (inactive); GI50 (UACC-62): 12.6 µM (inactive); GI50 (UO-31): 44.4 µM (inactive)
